A short description of series [1]: Vaporization of budesonide film from clean and treated steel foils 304, T-430 and zirconium oxide coated 304; aerosol purity, yield and recovery by HPLC. Particulars: in all cases (all foils of Example 5). Format: physicochemical. The text has this:
Generation of budesonide aerosol from clean and treated steel foils 304 and T-430. […] All foils were dip-coated with a budesonide solution in dichloromethane.

Series [2] can be described thus: Vaporization of bumetanide film from heat-treated, nitric acid-treated and non-treated 304 stainless steel foil; aerosol purity, yield and recovery by HPLC. As to conditions: for mass recovered from the filter / percent yield (recovered from the filter) / total mass recovered from the filter, test apparatus and substrate / Purity of the drug aerosol particles: coating 1.4 μm, 0.77 mg applied; for Purity of the drug aerosol particles: peak about 320° C.

A short description of series [3]: Vaporization of eletriptan film from heat-treated and non-treated 304 stainless steel foil; aerosol purity, yield and recovery by HPLC. It is filed as physicochemical. As to conditions: for mass recovered from the filter / percent yield (recovered from the filter) / total mass recovered from the filter, test apparatus and substrate / Purity of the drug aerosol particles: film thickness 4.2 μm, 2.26 mg applied; for Purity of the drug aerosol particles: peak about 450° C.
Description: All foils were dip-coated with an eletriptan solution in acetone.

The nature of series [4]: Vaporization of flunisolide film from stainless steel foil substrates (304, T-430, zirconium oxide coated 304); aerosol purity, yield and recovery by HPLC. As to conditions: for Purity of the drug aerosol particles: peak about 350° C.
[5] abbreviates: acid-treated (nitric acid) substrate.
Setting [6] is: 0.5 μm coating on the heat-treated substrate.
[7] abbreviates: 1.5 μm coating on the non-treated substrate.
Where [8] appears, read: heat-treated substrate 304, film thickness 0.5 μm, 0.253 mg applied.
Where [9] appears, read: heat-treated substrate 304, film thickness 1.5 μm, 0.443 mg applied.
Where [10] appears, read: non-treated substrate 304, film thickness 0.9 μm, 0.485 mg applied.
The mark [11] stands for this setting: non-treated substrate T-430, film thickness 1.3 μm, 0.68 mg applied.
Where [12] appears, read: substrate 304 (treatment not stated), film thickness 1.2 μm, 0.65 mg applied.
The mark [13] stands for this setting: zirconium oxide coated substrate 304, film thickness 0.8 μm, 0.44 mg applied.

“Also recorded” adds a separate entry of the source.

As for `CCCC1O[C@@H]2C[C@H]3[C@@H]4CCC5=CC(=O)C=C[C@]5(C)[C@H]4[C@@H](O)C[C@]3(C)[C@]2(C(=O)CO)O1` (some centres unmarked) [budesonide], the “quantity of drug remaining on the foil after vaporization” value (shortened to “quantity of drug remaining on the foil”) in series [1] is “less than 5 % of the loaded dose”.
For `CCCCNc1cc(C(=O)O)cc(S(N)(=O)=O)c1Oc1ccccc1` [bumetanide], in series [2] (setting [5]), the “mass recovered from the filter” value came to 0.41 mg; the “percent yield (recovered from the filter)” value (from here on “percent yield”) is given as 53%; the “total mass recovered from the filter, test apparatus and substrate” value (shortened to “total mass recovered from the filter”) turned out to be 0.42 mg; the “Purity of the drug aerosol particles” value is reported as 98.3%. For the same molecule, the “Purity of the drug aerosol particles” value in series [2] (heat-treated substrate (350° C., 6 hours)) turned out to be 99.3%. In addition, in series [2] (heat-treated substrate), the “mass recovered from the filter” value amounted to 0.40 mg; the “percent yield” value turned out to be 52%; the “total mass recovered from the filter” value was found to be 0.41 mg. In series [2] (in all cases (all foils of Example 4)), the “quantity of drug remaining on the foil” value was “less than 5 % of the loaded dose”. For the same molecule, in series [2] (non-treated substrate), the “mass recovered from the filter” value was 0.37 mg; the “percent yield” value came to 48%; the “total mass recovered from the filter” value amounted to 0.37 mg; the “Purity of the drug aerosol particles” value is 97.9%.
`CN1CCC[C@@H]1Cc1c[nH]c2ccc(CCS(=O)(=O)c3ccccc3)cc12` [eletriptan]: in series [3] (heat-treated 304 substrate), the “mass recovered from the filter” value is 1.78 mg; the “percent yield” value is 78.9%; the “total mass recovered from the filter” value is recorded as 1.79 mg; the “Purity of the drug aerosol particles” value stood at 95.6%. The “change of aerosol purity (in words)” value in series [3] (heat-treated versus non-treated foils, films between 4.0 and 9.5 μm (FIG. 8)) was “increase”. In addition, the “quantity of drug remaining on the foil” value in series [3] (in all cases (all foils of Example 2)) was “less than 15 % of the loaded dose”. Besides, in series [3] (non-treated 304 substrate), the “mass recovered from the filter” value was determined as 1.647 mg; the “percent yield” value was 72.9%; the “total mass recovered from the filter” value is listed as 1.65 mg; the “Purity of the drug aerosol particles” value was 92.8%.
In the case of `CC1(C)O[C@@H]2C[C@H]3[C@@H]4C[C@H](F)C5=CC(=O)C=C[C@]5(C)[C@H]4[C@@H](O)C[C@]3(C)[C@]2(C(=O)CO)O1` [flunisolide], the aerosol particles yielded entry in series [4] (setting [6]) is given as “about 0.3 mg”; in series [4] (setting [7]) it was 0.2 mg. The “coated dose emitted from the test apparatus” value in series [4] (setting [6]) is listed as 97%-100; in series [4] (setting [7]), “about 25%”. The “vapor purity (in words)” value in series [4] (clean, non-treated T-430 steel foil, compared with non-treated 304 (FIG. 7)) is listed as “good vapor purities; also recorded: improved purities; also recorded: very good purities”; in series [4] (zirconium oxide coated 304 steel foil, without heat treatment (FIG. 7)), “good aerosol purities; also recorded: improved purities; also recorded: very good vapor purities”. In addition, the “purity of thermal vapor” value is “about 93%” in series [4] (heat-treated 304 substrate, film thickness about 0.2 μm (FIG. 6)); “about 93%” in series [4] (heat-treated substrate, film thickness about 0.2 or 0.5 μm); 83% in series [4] (heat-treated substrate, film thickness about 2.6 μm); “about 50%” in series [4] (non-treated 304 substrate, film thickness about 0.2 μm (FIG. 6)); 38% in series [4] (non-treated substrate, film thickness about 1.5 μm). In addition, the “change of aerosol purity (in words)” value is “no marked improvement” in series [4] (heat-treated T-430 foils versus non-treated T-430) and “marked improvement; also recorded: marked increase” in series [4] (heat-treated versus non-treated 304 substrates, films 0.2 μm to 2.6 μm (FIG. 6)). In addition, the “mass recovered from the filter” value in series [4] (setting [8]) is on record as 0.253 mg; in series [4] (setting [9]), 0.255 mg; in series [4] (setting [10]) it was 0.206 mg; in series [4] (setting [11]) it was 0.47 mg; in series [4] (setting [12]) it was 0.161 mg; in series [4] (setting [13]) it was 0.246 mg. The “percent yield” value in series [4] (setting [8]) amounted to 100%; in series [4] (setting [9]) it was 57.5%; in series [4] (setting [10]) it was 42.4%; in series [4] (setting [11]), 69.1%; in series [4] (setting [12]) it was 24.7%; in series [4] (setting [13]) it was 55.9%. The “total mass recovered from the test apparatus and substrate” value in series [4] (setting [8]) is recorded as 0.253 mg; in series [4] (setting [9]), 0.265 mg; in series [4] (setting [10]), 0.210 mg; in series [4] (setting [11]), 0.51 mg; in series [4] (setting [12]) it was 0.172 mg; in series [4] (setting [13]) it was 0.31 mg. Besides, the “Purity of the drug aerosol particles” value in series [4] (setting [8]) turned out to be 94.4%; in series [4] (setting [9]), 76.5%; in series [4] (setting [10]), 36.3%; in series [4] (setting [11]) it was 82.8%; in series [4] (setting [12]), 30.2%; in series [4] (setting [13]) it was 90.0%. In addition, the “quantity of drug remaining on the foil” value in series [4] (in all cases (all foils of Example 1)) was “less than 15 % of the loaded dose”.

Values taken from patent publication US20110240014A1, “SUBSTRATES FOR DRUG DELIVERY DEVICE AND METHODS OF PREPARING AND USE” (ALEXZA PHARMACEUTICALS, INC., priority 2003, published 2011).
